Values of other authors as cited in paper PMC5560747, “Computational-experimental approach to drug-target interaction mapping: A case study on kinase inhibitors” (PLoS Computational Biology, 2017).

How the values were obtained:
Parameters in all cases: method as in Gao et al. [42]
Details in all cases: ref Gao et al. [42], cited from earlier work
MAPK13 = test system: MAPK13
STK17A = test system: STK17A
AXL = molecular target: T1, AXL (Homo sapiens, UniProt P30530)
T1 sequence (P30530 26-894): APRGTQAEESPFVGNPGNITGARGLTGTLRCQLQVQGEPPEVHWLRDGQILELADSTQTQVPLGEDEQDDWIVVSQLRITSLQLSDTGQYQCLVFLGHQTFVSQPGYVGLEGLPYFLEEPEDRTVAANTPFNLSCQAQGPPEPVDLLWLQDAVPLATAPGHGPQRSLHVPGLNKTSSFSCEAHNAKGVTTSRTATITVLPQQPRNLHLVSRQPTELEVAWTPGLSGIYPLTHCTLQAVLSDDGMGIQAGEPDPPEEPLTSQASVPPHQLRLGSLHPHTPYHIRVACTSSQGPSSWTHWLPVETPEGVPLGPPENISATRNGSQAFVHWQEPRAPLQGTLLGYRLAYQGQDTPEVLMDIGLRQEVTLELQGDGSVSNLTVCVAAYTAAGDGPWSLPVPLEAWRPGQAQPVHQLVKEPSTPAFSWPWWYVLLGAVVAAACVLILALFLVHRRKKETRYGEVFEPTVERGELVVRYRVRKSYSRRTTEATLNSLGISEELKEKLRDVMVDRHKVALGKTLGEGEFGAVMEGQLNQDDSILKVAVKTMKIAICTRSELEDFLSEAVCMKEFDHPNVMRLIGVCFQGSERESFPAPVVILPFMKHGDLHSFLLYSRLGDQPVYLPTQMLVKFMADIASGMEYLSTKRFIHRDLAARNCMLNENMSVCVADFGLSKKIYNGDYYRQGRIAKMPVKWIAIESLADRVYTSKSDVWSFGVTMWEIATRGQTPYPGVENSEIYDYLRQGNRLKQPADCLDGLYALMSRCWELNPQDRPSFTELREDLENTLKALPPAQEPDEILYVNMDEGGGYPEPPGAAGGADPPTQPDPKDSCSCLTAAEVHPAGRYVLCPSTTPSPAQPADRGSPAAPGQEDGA

CSNK1G2 = test system: CSNK1G2
CDK5/p25 = test system: CDK5/p25
MELK = test system: MELK
MARK2 = test system: MARK2
LIMK1 = test system: LIMK1
FGFR3 = test system: FGFR3
CSNK1D = test system: CSNK1D

Structure (SMILES): COc1cc2nccc(Oc3ccc(NC(=O)Nc4cc(C)on4)c(Cl)c3)c2cc1OC [TIVOZANIB, Tivozanib]
- Gao et al. % of activity remaining at 1 µM (MAPK13; 1 µM): 114%
- Gao et al. % of activity remaining at 10 µM (MAPK13; 10 µM): 97%
- Gao et al. % of activity remaining at 1 µM (STK17A; 1 µM): 116%
- Gao et al. % of activity remaining at 10 µM (STK17A; 10 µM): 87%
- Gao et al. % of activity remaining at 1 µM (AXL; 1 µM): 12%
- Gao et al. % of activity remaining at 10 µM (AXL; 10 µM): 10%
- Gao et al. % of activity remaining at 1 µM (CSNK1G2; 1 µM): 80%
- Gao et al. % of activity remaining at 10 µM (CSNK1G2; 10 µM): 73%
- Gao et al. % of activity remaining at 1 µM (CDK5/p25; 1 µM): 90%
- Gao et al. % of activity remaining at 10 µM (CDK5/p25; 10 µM): 95%
- Gao et al. % of activity remaining at 1 µM (MELK; 1 µM): 91%
- Gao et al. % of activity remaining at 10 µM (MELK; 10 µM): 80%
- Gao et al. % of activity remaining at 1 µM (MARK2; 1 µM): 98%
- Gao et al. % of activity remaining at 10 µM (MARK2; 10 µM): 106%
- Gao et al. % of activity remaining at 1 µM (LIMK1; 1 µM): 67%
- Gao et al. % of activity remaining at 10 µM (LIMK1; 10 µM): 14%
- Gao et al. % of activity remaining at 1 µM (FGFR3; 1 µM): 59%
- Gao et al. % of activity remaining at 10 µM (FGFR3; 10 µM): 28%
- Gao et al. % of activity remaining at 1 µM (CSNK1D; 1 µM): 85%
- Gao et al. % of activity remaining at 10 µM (CSNK1D; 10 µM): 61%
